# Test results taken from patent publication US5010058A, “3,5,6-substituted derivatives of 1,2-O-isopropylidene-α,D-glucofuranose and intermediates for preparing these derivatives” (501 Greenwich Pharmaceuticals Incorporated, priority 1989, dated 1991).
# Where two headings read alike, the source gives them in different places.
# Legend:
# [1] = system: normal spleen cells / splenic T-lymphocytes (Con-A stimulated); test: Con-A blastogenic response of normal spleen cells (3H-thymidine incorporation); assay type: cell-based, mouse (C57Bl/6); settings: for Blastogenic response of normal spleen cells to Con-A: triplicates ± SD; for inhibition at 1 µg/mL / inhibition at 10 µg/mL / inhibition at 25 µg/mL / inhibition at 100 µg/mL / inhibition at 300 µg/mL / inhibition at 750 µg/mL: Mus musculus, T-lymphocyte, 72 h, percent change from no compound, read-out: Blastogenic response of normal spleen cells to Con-A, % effect
# Text: A simple method is used to screen compounds for their ability to modulate T-lymphocyte activity which comprises assessing the capacity of the compounds to alter the activation of murine spleen cells in response to T-lymphocyte mitogen activators, such as concanavalin-A (Con-A). The method used to measure the effects of the compounds of the present invention on the blastogenic response of spleen cells to the T-lymphocyte mitogen, (i.e., Con-A), is as follows.
# Spleen cells were removed from normal C57Bl/6 mice and homogenized to obtain a single cell suspension. Erythrocytes were lysed by hypotonic shock. Upon determination of the viability and concentration of the remaining lymphoid cells, they were adjusted to a concentration of 4×10^6 /ml. These spleen cells (2×10^5 cells per […]) were seeded into wells of microtiter plates with the compounds of the present invention having the following dose concentrations:
# Con-A was also added to these cultures at a final concentration of […]. These cells were cultured for 3 days at 37° C. in a humidified atmosphere of 5% CO2 in air. For the last 18 hours of culture, […] H-thymidine was added to each well. The cells were then precipitated by a multichannel harvester. The amount of ^3 H-thymidine incorporated by the cultured cells were measured in a liquid scintillation counter (Disintegrations per min., DPM). All assays were conducted in triplicate.
# The incubation medium used for the blastogenesis assays was RPMI-1640 medium containing 10% fetal bovine serum, […] streptomycin, 100 U/ml penicillin, […] Hepes buffer solution, 5×10^-5 M 2-mercaptoethanol and 2 mM glutamine.
# (§1) ^a Experimental compounds were first suspended in DMSO or ethanol,
# ^b The effect of experimental compounds on the blastogenic response o
# [2] = system: BUD-8 skin cell fibroblasts; test: Proliferation of BUD-8 skin cell fibroblasts (3H-thymidine uptake); assay type: cell-based, human; settings: for 3H-Thymidine uptake by BUD-8 skin cells: triplicates ± SD
# Procedure: The human skin cell fibroblast line, BUD-8, was originally derived from the normal skin of a person and can now be obtained from the American Type Culture Collection.
# The number of BUD-8 cells was expanded for use by culture in 25 cm^2 flasks at 37° C. in an atmosphere of 5% CO2 in air. At approximately 4-5 five day intervals, or when confluence was reached, the cells were passaged. This was accomplished by detaching the cells with a Teflon scraper, washing and reseeding the cells at a lower density into fresh tissue culture flasks.
# The effect of these compound on the proliferative capacity of human BUD-8 skin fibroblasts was measured with the use of a ^3 H-thymidine incorporation assay using culture conditions which were similar to those used for the Con-A blastogenesis assay, described previously. Cultured skin cells were detached from the surface of tissue culture flasks mechanically with a Teflon scraper. The cells were washed, resuspended in incubation medium and the viabilities were determined. These cells were then plated in triplicate at a density of 2×10^3 cells/0.1 ml/microtiter well for the proliferation assays. […] Eighteen hours later, each of the BUD-8 cultures was examined morphologically for evidence of compound-induced toxicity such as cell rounding or granularity. The thymidine-pulsed cells were then precipitated and the amount of ^3 H-thymidine incorporation was counted in a liquid scintillation counter. […]
# as §1
# ^b The effect of experimental compounds on the proliferation of BUD8
# [3] = system: leukotriene B4 (LTB4) secretion by BUD-8 skin cell fibroblasts; test: Secretion of LTB4 by BUD-8 skin cell fibroblasts (radioimmunoassay); assay type: cell-based, human; settings: for LTB4 in supernatant of BUD-8 skin cells: triplicate ± SD
# Procedure: Levels of LTB4 in aliquots of BUD-8 skin cell cultures supernatants were quantified by radioimmunoassay. The cells were first plated in triplicate at a density of 1×10^4 cells/0.1 ml/microtiter well for the assay to quantitate LTB4. To these cells was added 0.1 ml incubation medium containing compound 80182, or nordihydroguaiaretic acid (NDGA) to inhibit leukotriene production. After 18 hours of culture, samples of the BUD-8 skin cell supernatants were collected from one set of microtiter plates and frozen until assayed for LTB4 content using a radioimmunoassay. Into a polypropylene tube were mixed 0.1 ml anti-LTB4, 0.1 ml^3 H-LTB4 and 0.1 ml LTB4 standard or LTB4 containing sample. The BUD-8 skin cell culture supernatants were used directly in the radioimmunoassay. The tubes were refrigerated overnight. A charcoal solution (0.5 ml of 0.5% charcoal Norit A) was added and each tube was centrifuged. The radio activity in the supernatant was then counted in a liquid scintillation counter. | ^a Experimental compounds were first suspended in DMSO or ethanol, | ^b The effect of experimental compounds on the amount of LTB4 in […]
# [4] = Con-A 1 ug/ml, compound 1 ug/ml
# [5] = Con-A 1 ug/ml, compound 10 ug/ml
# [6] = Con-A 1 ug/ml, compound 25 ug/ml
# [7] = Con-A 1 ug/ml, compound 100 ug/ml
# [8] = Con-A 1 ug/ml, compound 300 ug/ml
# [9] = Con-A 1 ug/ml, compound 750 ug/ml
# [10] = Con-A 4 ug/ml, compound 1 ug/ml
# [11] = Con-A 4 ug/ml, compound 10 ug/ml
# [12] = Con-A 4 ug/ml, compound 25 ug/ml
# [13] = Con-A 4 ug/ml, compound 100 ug/ml
# [14] = Con-A 4 ug/ml, compound 300 ug/ml
# [15] = Con-A 4 ug/ml, compound 750 ug/ml
structure (smiles),measurement,setting,value
"CCCCCCCCCCCNCC(O)C1OC2OC(C)(C)OC2C1O [Ex. 2, 1,2-O-Isopropylidene-6-deoxy-6-aminoundecyl-α, D-glucofuranose]",Blastogenic response of normal spleen cells to Con-A,[1]; [4],"13,581 ± 4,804 cpm"
same,Blastogenic response of normal spleen cells to Con-A,[1]; [5],"5,014 ± 89 cpm"
same,Blastogenic response of normal spleen cells to Con-A,[1]; [6],"3,312 ± 1,541 cpm"
same,Blastogenic response of normal spleen cells to Con-A,[1]; [7],"2,967 ± 964 cpm"
same,Blastogenic response of normal spleen cells to Con-A,[1]; [8],"2,934 ± 299 cpm"
same,Blastogenic response of normal spleen cells to Con-A,[1]; [9],"2,020 ± 651 cpm"
same,Blastogenic response of normal spleen cells to Con-A,[1]; [10],"18,607 ± 8,159 cpm"
same,Blastogenic response of normal spleen cells to Con-A,[1]; [11],"4,293 ± 3,517 cpm"
same,Blastogenic response of normal spleen cells to Con-A,[1]; [12],"1,635 ± 635 cpm"
same,Blastogenic response of normal spleen cells to Con-A,[1]; [13],"2,618 ± 444 cpm"
same,Blastogenic response of normal spleen cells to Con-A,[1]; [14],"2,787 ± 413 cpm"
same,Blastogenic response of normal spleen cells to Con-A,[1]; [15],"1,575 ± 480 cpm"
same,inhibition at 1 µg/mL,[1]; [4],81%
same,inhibition at 10 µg/mL,[1]; [5],93%
same,inhibition at 25 µg/mL,[1]; [6],95%
same,inhibition at 100 µg/mL,[1]; [7],96%
same,inhibition at 300 µg/mL,[1]; [8],96%
same,inhibition at 750 µg/mL,[1]; [9],97%
same,inhibition at 1 µg/mL,[1]; [10],81%
same,inhibition at 10 µg/mL,[1]; [11],96%
same,inhibition at 25 µg/mL,[1]; [12],98%
same,inhibition at 100 µg/mL,[1]; [13],97%
same,inhibition at 300 µg/mL,[1]; [14],97%
same,inhibition at 750 µg/mL,[1]; [15],98%
same,anti-proliferative effect on skin cells,[2],anti-proliferative effect that was statistically significant
same,inhibition at 1 µg/mL,"[2]; Homo sapiens, Fibroblast, compound 1 ug/ml, percent change from no compound, read-out: 3H-Thymidine uptake by BUD-8 skin cells, % effect",1%
same,inhibition at 10 µg/mL,"[2]; Homo sapiens, Fibroblast, compound 10 ug/ml, percent change from no compound, read-out: 3H-Thymidine uptake by BUD-8 skin cells, % effect",46%
same,inhibition at 25 µg/mL,"[2]; Homo sapiens, Fibroblast, compound 25 ug/ml, percent change from no compound, read-out: 3H-Thymidine uptake by BUD-8 skin cells, % effect",77%
same,inhibition at 100 µg/mL,"[2]; Homo sapiens, Fibroblast, compound 100 ug/ml, percent change from no compound, read-out: 3H-Thymidine uptake by BUD-8 skin cells, % effect",89%
same,inhibition at 300 µg/mL,"[2]; Homo sapiens, Fibroblast, compound 300 ug/ml, percent change from no compound, read-out: 3H-Thymidine uptake by BUD-8 skin cells, % effect",90%
same,inhibition at 750 µg/mL,"[2]; Homo sapiens, Fibroblast, compound 750 ug/ml, percent change from no compound, read-out: 3H-Thymidine uptake by BUD-8 skin cells, % effect",85%
same,3H-Thymidine uptake by BUD-8 skin cells,[2]; compound 1 ug/ml,"6,069 ± 636 cpm"
same,3H-Thymidine uptake by BUD-8 skin cells,[2]; compound 10 ug/ml,"3,363 ± 227 cpm"
same,3H-Thymidine uptake by BUD-8 skin cells,[2]; compound 25 ug/ml,"1,430 ± 1,176 cpm"
same,3H-Thymidine uptake by BUD-8 skin cells,[2]; compound 100 ug/ml,649 ± 114 cpm
same,3H-Thymidine uptake by BUD-8 skin cells,[2]; compound 300 ug/ml,595 ± 110 cpm
same,3H-Thymidine uptake by BUD-8 skin cells,[2]; compound 750 ug/ml,911 ± 863 cpm
same,effect on LTB4 secretion / activity,[3],produced an effect upon the secretion of leukotriene B4
same,inhibition at 1 µg/mL,"[3]; Homo sapiens, Fibroblast, 18 h, compound 1 ug/ml, percent change from no compound, read-out: LTB4 secretion, % Effect",-15%
same,inhibition at 10 µg/mL,"[3]; Homo sapiens, Fibroblast, 18 h, compound 10 ug/ml, percent change from no compound, read-out: LTB4 secretion, % Effect",37%
same,inhibition at 25 µg/mL,"[3]; Homo sapiens, Fibroblast, 18 h, compound 25 ug/ml, percent change from no compound, read-out: LTB4 secretion, % Effect",58%
same,inhibition at 100 µg/mL,"[3]; Homo sapiens, Fibroblast, 18 h, compound 100 ug/ml, percent change from no compound, read-out: LTB4 secretion, % Effect",22%
same,inhibition at 300 µg/mL,"[3]; Homo sapiens, Fibroblast, 18 h, compound 300 ug/ml, percent change from no compound, read-out: LTB4 secretion, % Effect",60%
same,inhibition at 750 µg/mL,"[3]; Homo sapiens, Fibroblast, 18 h, compound 750 ug/ml, percent change from no compound, read-out: LTB4 secretion, % Effect",42%
same,calculated LTB4 secreted/10^5 BUD-8 cells,[3]; compound 1 ug/ml,862 pg LTB4 per 10^5 cells
same,LTB4 in supernatant of BUD-8 skin cells,[3]; compound 1 ug/ml,44.4 ± 3.8 pg LTB4 /100 ul supernatant
same,calculated LTB4 secreted/10^5 BUD-8 cells,[3]; compound 10 ug/ml,485 pg LTB4 per 10^5 cells
same,LTB4 in supernatant of BUD-8 skin cells,[3]; compound 10 ug/ml,24.6 ± 5.3 pg LTB4 /100 ul supernatant
same,calculated LTB4 secreted/10^5 BUD-8 cells,[3]; compound 25 ug/ml,303 pg LTB4 per 10^5 cells
same,LTB4 in supernatant of BUD-8 skin cells,[3]; compound 25 ug/ml,16.4 ± 2.0 pg LTB4 /100 ul supernatant
same,calculated LTB4 secreted/10^5 BUD-8 cells,[3]; compound 100 ug/ml,575 pg LTB4 per 10^5 cells
same,LTB4 in supernatant of BUD-8 skin cells,[3]; compound 100 ug/ml,30.1 ± 3.9 pg LTB4 /100 ul supernatant
same,calculated LTB4 secreted/10^5 BUD-8 cells,[3]; compound 300 ug/ml,281 pg LTB4 per 10^5 cells
same,LTB4 in supernatant of BUD-8 skin cells,[3]; compound 300 ug/ml,15.3 ± 1.1 pg LTB4 /100 ul supernatant
same,calculated LTB4 secreted/10^5 BUD-8 cells,[3]; compound 750 ug/ml,422 pg LTB4 per 10^5 cells
same,LTB4 in supernatant of BUD-8 skin cells,[3]; compound 750 ug/ml,22.4 ± 4.2 pg LTB4 /100 ul supernatant
